Measured values from ChEMBL document CHEMBL5303304, “EUbOPEN Chemogenomics Library - IncuCyte” (2023).

Legend:
Format in all cases: toxicity, cell-based
HEK-293T = assay: Incucyte cell viability with HEK293T; conditions: human, 10 µM, compound concentration 10 uM
U2OS = assay: Incucyte cell viability with U2OS; conditions: human, 10 µM, compound concentration 10 uM
Fibroblast = assay: Incucyte cell viability with human fibroblast; conditions: 10 µM, compound concentration 10 uM
Further: unitless GR value; below 1 slowed growth and below 0 cell loss.

Compound | Growth Rate (HEK-293T; 0 h, replicate number 1) | Growth Rate (U2OS; 12 h, replicate number 1) | Growth Rate (U2OS; 12 h, replicate number 2) | Growth Rate (U2OS; 18 h, replicate number 1) | Growth Rate (U2OS; 18 h, replicate number 2) | Growth Rate (U2OS; 24 h, replicate number 2) | Growth Rate (Fibroblast; 0 h, replicate number 2) | Growth Rate (HEK-293T; 12 h, replicate number 2) | Growth Rate (HEK-293T; 18 h, replicate number 1) | Growth Rate (HEK-293T; 18 h, replicate number 2) | Growth Rate (HEK-293T; 24 h, replicate number 1) | Growth Rate (HEK-293T; 24 h, replicate number 2) | Growth Rate (U2OS; 6 h, replicate number 1) | Growth Rate (Fibroblast; 6 h, replicate number 2) | Growth Rate (Fibroblast; 18 h, replicate number 2) | Growth Rate (Fibroblast; 24 h, replicate number 2) | Growth Rate (Fibroblast; 6 h, replicate number 1) | Growth Rate (Fibroblast; 12 h, replicate number 2) | Growth Rate (Fibroblast; 18 h, replicate number 1) | Growth Rate (Fibroblast; 24 h, replicate number 1) | further results
COc1cc(-c2cn[nH]c2)ccc1C(=O)Nc1ccc2c(c1)CCNCC2.Cl | -0.67 | 0.82 | 0.78 | 0.75 | 0.59 | 0.63 | 0.05 |  |  |  |  |  |  |  |  |  |  |  |  |  | Growth Rate (U2OS; 6 h, replicate number 2): 0.77; Growth Rate (U2OS; 24 h, replicate number 1): 0.87; Growth Rate (Fibroblast; 0 h, replicate number 1): 0.68
COc1c(-c2cn(C3CCC(=O)NC3=O)nn2)csc1C(=O)N1CCCC1 (stereo not drawn) |  | 0.85 |  | 0.92 |  |  |  | 0.89 | 0.73 | 0.9 | 0.9 | 1 | 0.89 | 0.73 | 0.92 | 0.97 |  |  |  |  | Growth Rate (HEK-293T; 0 h, replicate number 2): 0.78; Growth Rate (HEK-293T; 6 h, replicate number 1): 0.29; Growth Rate (HEK-293T; 6 h, replicate number 2): 0.71; Growth Rate (HEK-293T; 12 h, replicate number 1): 0.77; Growth Rate (Fibroblast; 0 h, replicate number 1): -1
Cc1ccc(-n2nc(C(C)(C)C)cc2NC(=O)Nc2ccc(OCCN3CCOCC3)c3ccccc23)cc1 [DORAMAPIMOD] | -0.47 |  | 0.9 |  | 0.87 | 0.76 | 0.08 |  | 0.87 |  | 0.95 |  |  |  |  |  |  |  |  |  | Growth Rate (HEK-293T; 6 h, replicate number 1): 0.67; Growth Rate (HEK-293T; 12 h, replicate number 1): 0.67; Growth Rate (U2OS; 0 h, replicate number 1): -1
CN[C@@H]1CC[C@@H](c2ccc(Cl)c(Cl)c2)c2ccccc21.Cl |  | 0.75 | 0.04 | 0.81 | 0.41 | 0.45 |  | -0.18 | 0.17 | -0.04 | 0.2 | 0.07 | 0.8 |  | -0.33 | -0.2 | -0.46 | -0.45 | -0.26 | -0.06 | Growth Rate (HEK-293T; 0 h, replicate number 2): -1; Growth Rate (HEK-293T; 6 h, replicate number 1): 0; Growth Rate (HEK-293T; 6 h, replicate number 2): -0.43; Growth Rate (HEK-293T; 12 h, replicate number 1): 0.01; Growth Rate (U2OS; 0 h, replicate number 1): -0.9; Growth Rate (U2OS; 0 h, replicate number 2): 0.34; Growth Rate (U2OS; 6 h, replicate number 2): 0.35; Growth Rate (U2OS; 24 h, replicate number 1): 0.85; Growth Rate (Fibroblast; 12 h, replicate number 1): -0.24
CO[C@H]1CC[C@H](N(c2cc(F)c(Oc3ncc(Cn4nccn4)cc3C(F)(F)F)cc2C(=O)O)C(=O)[C@H]2CC[C@H](C)CC2)CC1 | 0.27 |  | 0.82 |  | 1 | 0.87 |  |  |  |  |  |  | 0.6 | -0.41 |  | 0.67 | 0.07 |  | 0.76 | 0.77 | Growth Rate (HEK-293T; 0 h, replicate number 2): -0.25; Growth Rate (U2OS; 0 h, replicate number 1): 0.66; Growth Rate (U2OS; 6 h, replicate number 2): 0.76; Growth Rate (Fibroblast; 0 h, replicate number 1): -1
Cc1ccc(-c2cn3nc(C(=O)NC4(c5ccc(F)cc5)CN(C)C4)c(C(C)C)c3c(=O)[nH]2)cc1C |  | 0.9 | 0.86 | 0.59 | 0.74 | 0.61 |  |  | 0.19 | 0.21 | 0.07 | 0.09 | 0.98 | 0.39 | 0.26 | 0.27 |  | 0.19 | 0.16 | 0.16 | Growth Rate (HEK-293T; 12 h, replicate number 1): 0.66; Growth Rate (U2OS; 24 h, replicate number 1): 0.31; Growth Rate (Fibroblast; 0 h, replicate number 1): -1; Growth Rate (Fibroblast; 12 h, replicate number 1): 0.22
CCN(CC)C/C=C/C(=O)Nc1cc2c(Nc3ccc(F)c(Cl)c3)ncnc2cc1OCC1CC1 |  | -0.19 | 0.08 | -0.19 | 0.06 | -0.01 | -0.83 | -0.32 | -0.32 | -0.35 | -0.25 | -0.29 | 0.31 | -0.01 | -0.4 | -0.46 | 0.22 | -0.26 | -0.12 | -0.22 | Growth Rate (HEK-293T; 6 h, replicate number 1): -0.54; Growth Rate (HEK-293T; 6 h, replicate number 2): -0.45; Growth Rate (HEK-293T; 12 h, replicate number 1): -0.39; Growth Rate (U2OS; 0 h, replicate number 1): -0.62; Growth Rate (U2OS; 6 h, replicate number 2): 0.36; Growth Rate (U2OS; 24 h, replicate number 1): -0.24; Growth Rate (Fibroblast; 12 h, replicate number 1): 0
CC(C)C[C@H](NC(=O)[C@@H](O)[C@H](N)Cc1ccccc1)C(=O)O [UBENIMEX] | 0.14 | 0.82 |  | 0.94 |  |  | -0.85 |  | 0.49 | 0.98 | 0.59 | 0.92 | 0.42 |  | 0.83 | 0.91 |  | 0.72 |  |  | Growth Rate (HEK-293T; 6 h, replicate number 1): 0.49; Growth Rate (HEK-293T; 12 h, replicate number 1): 0.55; Growth Rate (U2OS; 0 h, replicate number 1): 0.42; Growth Rate (U2OS; 24 h, replicate number 1): 0.89
Cc1c(NC(=O)c2cccn(-c3ccc(F)cc3)c2=O)ccc(Oc2ccnc(NC(=O)C3CC3)c2)c1C |  | 0.92 |  | 0.85 |  | 0.96 | 0.16 | 0.78 |  | 0.94 |  |  |  | 0.99 |  |  | 0.52 |  |  |  | Growth Rate (HEK-293T; 6 h, replicate number 1): 0.59; Growth Rate (HEK-293T; 6 h, replicate number 2): 0.27; Growth Rate (U2OS; 0 h, replicate number 1): -0.05; Growth Rate (U2OS; 0 h, replicate number 2): -0.46
O=C(O)Cc1cc(I)c(Oc2ccc(O)c(I)c2)c(I)c1 [TIRATRICOL] | 0.25 | -0.73 |  | 0.97 | 0.96 | 0.9 |  | 0.66 | 0.92 | 0.7 | 1 | 0.69 | 0.77 | 0.26 | 0.7 | 0.76 | 0.72 | 0.55 |  | 0.92 | Growth Rate (HEK-293T; 0 h, replicate number 2): -0.35; Growth Rate (Fibroblast; 0 h, replicate number 1): 0.68
CNC(=O)COc1cc2cc(Nc3nc(N4C[C@H](C)C[C@H](C)C4)ncc3Cl)ccc2n(C)c1=O | 0.06 |  | 0.85 | 0.92 |  |  | -0.82 |  |  |  |  |  | 0.85 |  |  |  | 0.72 |  | 0.7 | 0.99 | Growth Rate (HEK-293T; 0 h, replicate number 2): 0.7; Growth Rate (U2OS; 0 h, replicate number 2): 0.58; Growth Rate (U2OS; 24 h, replicate number 1): 0.95; Growth Rate (Fibroblast; 12 h, replicate number 1): 0.96
CCO[C@H](COc1ccc(C(F)(F)F)cc1)CSc1ccc(OCC(=O)[O-])c(C)c1.[Na+] | -0.25 | 0.94 | 0.8 | 0.96 | 0.92 | 0.78 | 0.62 | 0.82 |  | 0.72 |  | 0.68 |  |  | 0.97 |  | 0.27 | 0.87 | 0.93 | 0.93 | Growth Rate (HEK-293T; 0 h, replicate number 2): -0.95; Growth Rate (HEK-293T; 6 h, replicate number 2): 0.55; Growth Rate (U2OS; 0 h, replicate number 2): 0.56; Growth Rate (U2OS; 6 h, replicate number 2): 0.78; Growth Rate (Fibroblast; 12 h, replicate number 1): 0.7
C[C@@H](CO)CCC[C@@H](C)[C@H]1CC[C@H]2[C@@H]3CC=C4C[C@@H](O)CC[C@]4(C)[C@H]3CC[C@]12C | 0.34 | 0.84 |  | 0.88 |  |  |  | 0.79 |  |  |  | 1 |  | 0.36 | 0.27 | 0.25 | 0.92 | 0.22 | 0.33 | 0.6 | Growth Rate (U2OS; 6 h, replicate number 2): 0.82; Growth Rate (Fibroblast; 0 h, replicate number 1): 0.73; Growth Rate (Fibroblast; 12 h, replicate number 1): 0.57
C[C@@H]1COCCN1c1cc(=O)n2c(n1)N(Cc1cncc(Cl)c1)[C@H](C(F)(F)F)CC2 |  | 0.92 | 0.89 | 0.87 | 0.95 |  | -0.86 | 0.44 | 0.39 | 0.54 | 0.39 | 0.45 | 0.61 | -0.75 |  |  | 0.36 | 0.29 | 0.92 | 0.83 | Growth Rate (HEK-293T; 6 h, replicate number 1): -0.3; Growth Rate (HEK-293T; 6 h, replicate number 2): -0.11; Growth Rate (HEK-293T; 12 h, replicate number 1): 0.15; Growth Rate (U2OS; 0 h, replicate number 1): 0.01; Growth Rate (U2OS; 24 h, replicate number 1): 0.73; Growth Rate (Fibroblast; 12 h, replicate number 1): 0.72
